Assay results as given in article PMC6497071 (Bioorganic & medicinal chemistry letters, 2018).
Where two headings read alike, the source gives them in different places.

What was measured:
[1] = tested on: MV4-11 leukemia cells; assay: MV4-11 leukemia cell viability; format: cell-based, human
[2] = tested on: tubulin; assay: tubulin polymerization cell-based immunoblot assay; conditions: immunoblot of pellet and supernatant
[3] = tested on: panel of 60 human tumor cell lines; conditions: against 87% of the cancer cell lines; cited from earlier work
[4] = tested on: CCRF-CEM; conditions: CCRF-CEM (Leukemia), five dose; cited from earlier work
[5] = tested on: HL-60(TB); conditions: HL-60(TB) (Leukemia), five dose; cited from earlier work
[6] = tested on: K-562; conditions: K-562 (Leukemia), five dose; cited from earlier work
[7] = tested on: MOLT-4; conditions: MOLT-4 (Leukemia), five dose; cited from earlier work
[8] = tested on: RPMI-8226; conditions: RPMI-8226 (Leukemia), five dose; cited from earlier work
[9] = tested on: SR; conditions: SR (Leukemia), five dose; cited from earlier work
[10] = tested on: A549/ATCC; conditions: A549/ATCC (Lung Cancer), five dose; cited from earlier work
[11] = tested on: HOP-62; conditions: HOP-62 (Lung Cancer), five dose; cited from earlier work
[12] = tested on: HOP-92; conditions: HOP-92 (Lung Cancer), five dose; cited from earlier work
[13] = tested on: NCI-H23; conditions: NCI-H23 (Lung Cancer), five dose; cited from earlier work
[14] = tested on: NCI-H522; conditions: NCI-H522 (Lung Cancer), five dose; cited from earlier work
[15] = tested on: COLO 205; conditions: COLO 205 (Colon Cancer), five dose; cited from earlier work
[16] = tested on: HCC-2998; conditions: HCC-2998 (Colon Cancer), five dose; cited from earlier work
[17] = tested on: HCT-116; conditions: HCT-116 (Colon Cancer), five dose; cited from earlier work
[18] = tested on: HCT-15; conditions: HCT-15 (Colon Cancer), five dose; cited from earlier work
[19] = tested on: HT29; conditions: HT29 (Colon Cancer), five dose; cited from earlier work
[20] = tested on: KM12; conditions: KM12 (Colon Cancer), five dose; cited from earlier work
[21] = tested on: SW-620; conditions: SW-620 (Colon Cancer), five dose; cited from earlier work
[22] = tested on: SF-268; conditions: SF-268 (CNS Cancer), five dose; cited from earlier work
[23] = tested on: SF-295; conditions: SF-295 (CNS Cancer), five dose; cited from earlier work
[24] = tested on: SF-539; conditions: SF-539 (CNS Cancer), five dose; cited from earlier work
[25] = tested on: SNB-19; conditions: SNB-19 (CNS Cancer), five dose; cited from earlier work
[26] = tested on: SNB-75; conditions: SNB-75 (CNS Cancer), five dose; cited from earlier work
[27] = tested on: U251; conditions: U251 (CNS Cancer), five dose; cited from earlier work
[28] = tested on: LOX IMVI; conditions: LOX IMVI (Melanoma), five dose; cited from earlier work
[29] = tested on: M14; conditions: M14 (Melanoma), five dose; cited from earlier work
[30] = tested on: MDA-MB-435; conditions: MDA-MB-435 (Melanoma), five dose; cited from earlier work
[31] = tested on: SK-MEL-2; conditions: SK-MEL-2 (Melanoma), five dose; cited from earlier work
[32] = tested on: SK-MEL-28; conditions: SK-MEL-28 (Melanoma), five dose; cited from earlier work
[33] = tested on: SK-MEL-5; conditions: SK-MEL-5 (Melanoma), five dose; cited from earlier work
[34] = tested on: UACC-62; conditions: UACC-62 (Melanoma), five dose; cited from earlier work
[35] = tested on: IGROV1; conditions: IGROV1 (Ovarian Cancer), five dose; cited from earlier work
[36] = tested on: OVCAR-3; conditions: OVCAR-3 (Ovarian Cancer), five dose; cited from earlier work
[37] = tested on: OVCAR-4; conditions: OVCAR-4 (Ovarian Cancer), five dose; cited from earlier work
[38] = tested on: NCI/ADR-RES; conditions: NCI/ADR-RES (Ovarian Cancer), five dose; cited from earlier work
[39] = tested on: SK-OV-3; conditions: SK-OV-3 (Ovarian Cancer), five dose; cited from earlier work
[40] = tested on: 786-0; conditions: 786-0 (Renal Cancer), five dose; cited from earlier work
[41] = tested on: A498; conditions: A498 (Renal Cancer), five dose; cited from earlier work
[42] = tested on: ACHN; conditions: ACHN (Renal Cancer), five dose; cited from earlier work
[43] = tested on: CAKI-1; conditions: CAKI-1 (Renal Cancer), five dose; cited from earlier work
[44] = tested on: UO-31; conditions: UO-31 (Renal Cancer), five dose; cited from earlier work
[45] = tested on: MCF7; conditions: MCF7 (Breast Cancer), five dose; cited from earlier work
[46] = tested on: MDA-MB-231/ATCC; conditions: MDA-MB-231/ATCC (Breast Cancer), five dose; cited from earlier work
[47] = tested on: HS 578T; conditions: HS 578T (Breast Cancer), five dose; cited from earlier work
[48] = tested on: MDA-MB-468; conditions: MDA-MB-468 (Breast Cancer), five dose; cited from earlier work
[49] = tested on: panel of 60 human tumor cell lines; assay: NCI-60 five dose assay, whole panel summary; format: cell-based

## COc1ccc(/C=C(/c2ccc([N+](=O)[O-])cc2)c2nnn[nH]2)c2ccccc12 [Compound 10a, (Z)-5-(2-(4-Methoxynaphthalen-1-yl)-1-(4-nitrophenyl)vinyl)-1H-tetrazole]
[1]
  LD50 (24h): 1.46 µM
  LD50 (48h): 1.39 µM
[2]; 1.0 μM and 2.0 μM
  inhibition of tubulin polymerization: inhibited tubulin polymerization
[2]; 2.0 μM
  inhibition of tubulin polymerization: Significant inhibition

## COc1ccccc1/C=C(/c1cc(Br)cc(Br)c1)c1nnn[nH]1 [Compound 8c, (Z)-5-(1-(3,5-Dibromophenyl)-2-(2-methoxyphenyl)vinyl)-1H-tetrazole]
[1]
  LD50 (24h): 28.8 µM
  LD50 (48h): 28.6 µM

## COc1ccc(/C=C(/c2cc(OC)c(OC)c(OC)c2)c2nnn[nH]2)cc1 [Compound 8g, (Z)-5-(2-(4-Methoxyphenyl)-1-(3,4,5-trimethoxyphenyl)vinyl)-1H-tetrazole]
[1]
  LD50 (24h): 4.60 µM
  LD50 (48h): 4.29 µM
[1]; LD50 ratio
  fold less effective when compared with 8h: ~170 fold
[2]; 1.0 μM and 2.0 μM
  inhibition of tubulin polymerization: inhibited tubulin polymerization
[2]; 2.0 μM
  inhibition of tubulin polymerization: Significant inhibition

## COc1ccc(/C=C(\C#N)c2cc(OC)c(OC)c(OC)c2)cc1O [Compound 5]
[1]
  LD50 (48h): 0.04 µM
[3]
  GI50: < 10 nM
[4]
  GI50: < 10 nM
[5]
  GI50: < 10 nM
[6]
  GI50: < 10 nM
[7]
  GI50: < 10 nM
[8]
  GI50: < 10 nM
[9]
  GI50: < 10 nM
[10]
  GI50: < 10 nM
[11]
  GI50: < 10 nM
[12]
  GI50: < 10 nM
[13]
  GI50: < 10 nM
[14]
  GI50: < 10 nM
[15]
  GI50: 2990 nM
[16]
  GI50: 20 nM
[17]
  GI50: < 10 nM
[18]
  GI50: < 10 nM
[19]
  GI50: 3.18 µM
[20]
  GI50: < 10 nM
[21]
  GI50: < 10 nM
[22]
  GI50: < 10 nM
[23]
  GI50: 50 nM
[24]
  GI50: < 10 nM
[25]
  GI50: < 10 nM
[26]
  GI50: < 10 nM
[27]
  GI50: 10 nM
[28]
  GI50: < 10 nM
[29]
  GI50: < 10 nM
[30]
  GI50: < 10 nM
[31]
  GI50: < 10 nM
[32]
  GI50: 1010 nM
[33]
  GI50: < 10 nM
[34]
  GI50: < 10 nM
[35]
  GI50: < 10 nM
[36]
  GI50: < 10 nM
[37]
  GI50: < 10 nM
[38]
  GI50: < 10 nM
[39]
  GI50: 10 nM
[40]
  GI50: < 10 nM
[41]
  GI50: < 10 nM
[42]
  GI50: < 10 nM
[43]
  GI50: 30 nM
[44]
  GI50: < 10 nM
[45]
  GI50: < 10 nM
[46]
  GI50: < 10 nM
[47]
  GI50: < 10 nM
[48]
  GI50: < 10 nM

## COc1ccc(/C(=C/c2ccc3ccccc3c2)c2nnn[nH]2)cc1OC [Compound 10b, (Z)-5-(1-(3,4-Dimethoxyphenyl)-2-(naphthalen-2-yl)vinyl)-1H-tetrazole]
[1]
  LD50 (24h): 1.08 µM
  LD50 (48h): 1.01 µM
[2]; 1.0 μM and 2.0 μM
  inhibition of tubulin polymerization: inhibited tubulin polymerization
[2]; 2.0 μM
  inhibition of tubulin polymerization: significantly less active
[49]; against more than 30% of the human cancer cell lines
  GI50: < 2500 nM
[49]; against only 15% of the cell lines in the panel
  GI50: < 2000 nM

## COc1ccc(/C=C(/c2cc(OC)c(OC)c(OC)c2)c2nnn[nH]2)cc1O [Compound 8h, (Z)-5-(2-(1H-Tetrazol-5-yl)-2-(3,4,5-trimethoxyphenyl)vinyl)-2-methoxyphenol]
[1]
  LD50 (24h): 0.03 µM
  LD50 (48h): 0.02 µM
[1]; time not stated in text (equals 24h value of Table 4)
  LD50: 30 nM
[1]; time not stated in text (equals 48h value of Table 4)
  LD50: 20 nM
[2]; 1.0 μM and 2.0 μM
  inhibition of tubulin polymerization: inhibited tubulin polymerization
[2]; 2.0 μM
  inhibition of tubulin polymerization: Significant inhibition
[49]; 60 cell
  GI50: < 10 nM
